Data published in article PMC10408569, “Recruitment of hexahydroquinoline as anticancer scaffold targeting inhibition of wild and mutants EGFR (EGFR^WT, EGFR^T790M, and EGFR^L858R)” (Journal of Enzyme Inhibition and Medicinal Chemistry, 2023).

Assays:
[1] = tested on: CCRF-CEM; experiment: NCI-60 anticancer screening (SRB); format: cell-based; settings: Homo sapiens, leukemia, one dose 10 μM, read-out: Growth Inhibition Percentage (GI %)
[2] = tested on: EKVX; experiment: NCI-60 anticancer screening (SRB); format: cell-based; settings: Homo sapiens, NSC lung cancer, one dose 10 μM, read-out: Growth Inhibition Percentage (GI %)
[3] = tested on: HOP-92; experiment: NCI-60 anticancer screening (SRB); format: cell-based; settings: Homo sapiens; HOP-92, NSC lung cancer; one dose 10 μM; read-out: Growth Inhibition Percentage (GI %)
[4] = tested on: NCI-H460; experiment: NCI-60 anticancer screening (SRB); format: cell-based; settings: Homo sapiens; NCI-H460, NSC lung cancer; one dose 10 μM; read-out: Growth Inhibition Percentage (GI %)
[5] = tested on: COLO 205; experiment: NCI-60 anticancer screening (SRB); format: cell-based; settings: Homo sapiens; COLO 205, colon cancer; one dose 10 μM; read-out: Growth Inhibition Percentage (GI %)
[6] = tested on: HCT-116; experiment: NCI-60 anticancer screening (SRB); format: cell-based; settings: Homo sapiens; HCT-116, colon cancer; one dose 10 μM; read-out: Growth Inhibition Percentage (GI %)
[7] = tested on: HT29; experiment: NCI-60 anticancer screening (SRB); format: cell-based; settings: Homo sapiens, HT-29; HT29, colon cancer; one dose 10 μM; read-out: Growth Inhibition Percentage (GI %)
[8] = tested on: SF-295; experiment: NCI-60 anticancer screening (SRB); format: cell-based; settings: Homo sapiens; SF-295, CNS cancer; one dose 10 μM; read-out: Growth Inhibition Percentage (GI %)
[9] = tested on: SF-539; experiment: NCI-60 anticancer screening (SRB); format: cell-based; settings: Homo sapiens; SF-539, CNS cancer; one dose 10 μM; read-out: Growth Inhibition Percentage (GI %)
[10] = tested on: U251; experiment: NCI-60 anticancer screening (SRB); format: cell-based; settings: Homo sapiens, U-251; U251, CNS cancer; one dose 10 μM; read-out: Growth Inhibition Percentage (GI %)
[11] = tested on: MALME-3M; experiment: NCI-60 anticancer screening (SRB); format: cell-based; settings: Homo sapiens, melanoma, one dose 10 μM, read-out: Growth Inhibition Percentage (GI %)
[12] = tested on: M14; experiment: NCI-60 anticancer screening (SRB); format: cell-based; settings: Homo sapiens; M14, melanoma; one dose 10 μM; read-out: Growth Inhibition Percentage (GI %)
[13] = tested on: SK-MEL-28; experiment: NCI-60 anticancer screening (SRB); format: cell-based; settings: Homo sapiens; SK-MEL-28, melanoma; one dose 10 μM; read-out: Growth Inhibition Percentage (GI %)
[14] = tested on: UACC-62; experiment: NCI-60 anticancer screening (SRB); format: cell-based; settings: Homo sapiens; UACC-62, melanoma; one dose 10 μM; read-out: Growth Inhibition Percentage (GI %)
[15] = tested on: IGROV1; experiment: NCI-60 anticancer screening (SRB); format: cell-based; settings: Homo sapiens, IGROV-1; IGROV1, ovarian cancer; one dose 10 μM; read-out: Growth Inhibition Percentage (GI %)
[16] = tested on: NCI/ADR-RES; experiment: NCI-60 anticancer screening (SRB); format: cell-based; settings: Homo sapiens, ovarian cancer, one dose 10 μM, read-out: Growth Inhibition Percentage (GI %)
[17] = tested on: 786-0; experiment: NCI-60 anticancer screening (SRB); format: cell-based; settings: Homo sapiens; 786-0, renal cancer; one dose 10 μM; read-out: Growth Inhibition Percentage (GI %)
[18] = tested on: A498; experiment: NCI-60 anticancer screening (SRB); format: cell-based; settings: Homo sapiens; A498, renal cancer; one dose 10 μM; read-out: Growth Inhibition Percentage (GI %)
[19] = tested on: CAKI-1; experiment: NCI-60 anticancer screening (SRB); format: cell-based; settings: Homo sapiens; CAKI-1, renal cancer; one dose 10 μM; read-out: Growth Inhibition Percentage (GI %)
[20] = tested on: SN 12C; experiment: NCI-60 anticancer screening (SRB); format: cell-based; settings: Homo sapiens, SN12C; SN 12C, renal cancer; one dose 10 μM; read-out: Growth Inhibition Percentage (GI %)
[21] = tested on: TK-10; experiment: NCI-60 anticancer screening (SRB); format: cell-based; settings: Homo sapiens; TK-10, renal cancer; one dose 10 μM; read-out: Growth Inhibition Percentage (GI %)
[22] = tested on: UO-31; experiment: NCI-60 anticancer screening (SRB); format: cell-based; settings: Homo sapiens; UO-31, renal cancer; one dose 10 μM; read-out: Growth Inhibition Percentage (GI %)
[23] = tested on: PC-3; experiment: NCI-60 anticancer screening (SRB); format: cell-based; settings: Homo sapiens; PC-3, prostate cancer; one dose 10 μM; read-out: Growth Inhibition Percentage (GI %)
[24] = tested on: DU-145; experiment: NCI-60 anticancer screening (SRB); format: cell-based; settings: Homo sapiens; DU-145, prostate cancer; one dose 10 μM; read-out: Growth Inhibition Percentage (GI %)
[25] = tested on: MCF7; experiment: NCI-60 anticancer screening (SRB); format: cell-based; settings: Homo sapiens; MCF7, breast cancer; one dose 10 μM; read-out: Growth Inhibition Percentage (GI %)
[26] = tested on: MDA-MB-231; experiment: NCI-60 anticancer screening (SRB); format: cell-based; settings: Homo sapiens; MDA-MB-231, breast cancer; one dose 10 μM; read-out: Growth Inhibition Percentage (GI %)
[27] = tested on: HS 578T; experiment: NCI-60 anticancer screening (SRB); format: cell-based; settings: Homo sapiens; HS 578T, breast cancer; one dose 10 μM; read-out: Growth Inhibition Percentage (GI %)
[28] = tested on: BT-549; experiment: NCI-60 anticancer screening (SRB); format: cell-based; settings: Homo sapiens; BT-549, breast cancer; one dose 10 μM; read-out: Growth Inhibition Percentage (GI %)
[29] = target: EGFR^T790M (Homo sapiens, UniProt P00533, T790M); experiment: biochemical
[30] = target: EGFR^L858R (Homo sapiens, UniProt P00533, L858R); experiment: biochemical
[31] = target: EGFR^WT (Homo sapiens, UniProt P00533); experiment: EGFR kinase inhibitory assay (HTRF)
EGFR^WT, sequence (P00533 25-1210): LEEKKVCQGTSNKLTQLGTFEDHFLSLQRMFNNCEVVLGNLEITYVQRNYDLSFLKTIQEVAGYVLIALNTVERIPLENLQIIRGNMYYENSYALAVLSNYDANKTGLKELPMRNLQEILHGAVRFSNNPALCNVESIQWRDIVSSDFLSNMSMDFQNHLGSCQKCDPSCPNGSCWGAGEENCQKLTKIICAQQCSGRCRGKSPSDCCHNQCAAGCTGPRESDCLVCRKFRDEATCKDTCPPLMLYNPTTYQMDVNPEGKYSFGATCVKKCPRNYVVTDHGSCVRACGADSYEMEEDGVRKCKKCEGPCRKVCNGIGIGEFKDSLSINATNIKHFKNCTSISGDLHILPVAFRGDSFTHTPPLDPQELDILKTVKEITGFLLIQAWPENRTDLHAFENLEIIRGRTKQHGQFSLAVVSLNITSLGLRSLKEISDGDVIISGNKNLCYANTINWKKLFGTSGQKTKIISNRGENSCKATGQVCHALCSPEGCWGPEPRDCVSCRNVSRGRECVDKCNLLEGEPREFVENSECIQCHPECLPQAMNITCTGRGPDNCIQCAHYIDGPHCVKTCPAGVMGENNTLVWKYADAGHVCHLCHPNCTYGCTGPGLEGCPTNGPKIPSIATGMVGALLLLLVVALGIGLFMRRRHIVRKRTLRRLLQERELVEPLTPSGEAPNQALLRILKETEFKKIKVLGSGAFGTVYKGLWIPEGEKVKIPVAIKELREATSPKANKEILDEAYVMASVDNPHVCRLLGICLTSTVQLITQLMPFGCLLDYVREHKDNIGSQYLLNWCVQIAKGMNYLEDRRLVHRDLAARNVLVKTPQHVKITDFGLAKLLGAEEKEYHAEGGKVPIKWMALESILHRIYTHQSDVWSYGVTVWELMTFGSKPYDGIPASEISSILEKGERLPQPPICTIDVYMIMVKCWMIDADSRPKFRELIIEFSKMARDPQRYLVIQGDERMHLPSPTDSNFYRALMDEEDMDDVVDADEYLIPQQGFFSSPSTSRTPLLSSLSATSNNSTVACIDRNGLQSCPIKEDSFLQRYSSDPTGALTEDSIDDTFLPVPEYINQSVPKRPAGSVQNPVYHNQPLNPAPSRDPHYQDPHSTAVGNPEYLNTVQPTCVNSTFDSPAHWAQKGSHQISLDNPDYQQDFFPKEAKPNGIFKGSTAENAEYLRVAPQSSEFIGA

EGFR^T790M, sequence (P00533 25-1210 T790M): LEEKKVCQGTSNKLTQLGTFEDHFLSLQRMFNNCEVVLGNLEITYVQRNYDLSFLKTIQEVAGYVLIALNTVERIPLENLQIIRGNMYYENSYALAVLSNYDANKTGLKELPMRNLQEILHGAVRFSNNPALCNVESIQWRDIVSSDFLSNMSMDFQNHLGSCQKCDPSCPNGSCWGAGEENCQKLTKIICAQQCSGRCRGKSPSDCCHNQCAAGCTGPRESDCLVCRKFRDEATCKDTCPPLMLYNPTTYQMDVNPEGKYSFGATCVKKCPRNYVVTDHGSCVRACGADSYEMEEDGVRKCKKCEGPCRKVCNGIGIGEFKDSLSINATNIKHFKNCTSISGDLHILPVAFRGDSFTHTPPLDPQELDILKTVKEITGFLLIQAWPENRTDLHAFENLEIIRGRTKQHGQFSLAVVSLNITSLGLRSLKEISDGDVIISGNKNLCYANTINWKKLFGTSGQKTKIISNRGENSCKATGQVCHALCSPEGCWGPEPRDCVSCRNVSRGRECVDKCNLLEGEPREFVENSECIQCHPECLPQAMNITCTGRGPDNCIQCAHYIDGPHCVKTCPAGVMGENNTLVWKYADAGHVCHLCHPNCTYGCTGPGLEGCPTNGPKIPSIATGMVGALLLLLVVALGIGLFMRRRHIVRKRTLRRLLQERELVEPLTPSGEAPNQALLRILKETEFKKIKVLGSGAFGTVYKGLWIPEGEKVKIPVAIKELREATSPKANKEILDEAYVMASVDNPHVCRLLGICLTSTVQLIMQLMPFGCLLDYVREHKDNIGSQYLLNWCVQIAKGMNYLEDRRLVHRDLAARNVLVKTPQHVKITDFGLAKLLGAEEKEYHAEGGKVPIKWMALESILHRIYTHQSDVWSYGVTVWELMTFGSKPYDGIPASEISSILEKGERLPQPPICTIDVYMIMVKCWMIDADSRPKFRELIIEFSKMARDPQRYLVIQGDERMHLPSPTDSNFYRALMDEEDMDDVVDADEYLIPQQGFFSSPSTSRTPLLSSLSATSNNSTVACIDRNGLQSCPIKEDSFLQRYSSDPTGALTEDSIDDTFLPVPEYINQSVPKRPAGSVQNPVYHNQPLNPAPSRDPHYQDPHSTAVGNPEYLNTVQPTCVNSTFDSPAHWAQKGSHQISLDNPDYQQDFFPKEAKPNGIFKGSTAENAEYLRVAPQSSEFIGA
EGFR^L858R, sequence (P00533 25-1210 L858R): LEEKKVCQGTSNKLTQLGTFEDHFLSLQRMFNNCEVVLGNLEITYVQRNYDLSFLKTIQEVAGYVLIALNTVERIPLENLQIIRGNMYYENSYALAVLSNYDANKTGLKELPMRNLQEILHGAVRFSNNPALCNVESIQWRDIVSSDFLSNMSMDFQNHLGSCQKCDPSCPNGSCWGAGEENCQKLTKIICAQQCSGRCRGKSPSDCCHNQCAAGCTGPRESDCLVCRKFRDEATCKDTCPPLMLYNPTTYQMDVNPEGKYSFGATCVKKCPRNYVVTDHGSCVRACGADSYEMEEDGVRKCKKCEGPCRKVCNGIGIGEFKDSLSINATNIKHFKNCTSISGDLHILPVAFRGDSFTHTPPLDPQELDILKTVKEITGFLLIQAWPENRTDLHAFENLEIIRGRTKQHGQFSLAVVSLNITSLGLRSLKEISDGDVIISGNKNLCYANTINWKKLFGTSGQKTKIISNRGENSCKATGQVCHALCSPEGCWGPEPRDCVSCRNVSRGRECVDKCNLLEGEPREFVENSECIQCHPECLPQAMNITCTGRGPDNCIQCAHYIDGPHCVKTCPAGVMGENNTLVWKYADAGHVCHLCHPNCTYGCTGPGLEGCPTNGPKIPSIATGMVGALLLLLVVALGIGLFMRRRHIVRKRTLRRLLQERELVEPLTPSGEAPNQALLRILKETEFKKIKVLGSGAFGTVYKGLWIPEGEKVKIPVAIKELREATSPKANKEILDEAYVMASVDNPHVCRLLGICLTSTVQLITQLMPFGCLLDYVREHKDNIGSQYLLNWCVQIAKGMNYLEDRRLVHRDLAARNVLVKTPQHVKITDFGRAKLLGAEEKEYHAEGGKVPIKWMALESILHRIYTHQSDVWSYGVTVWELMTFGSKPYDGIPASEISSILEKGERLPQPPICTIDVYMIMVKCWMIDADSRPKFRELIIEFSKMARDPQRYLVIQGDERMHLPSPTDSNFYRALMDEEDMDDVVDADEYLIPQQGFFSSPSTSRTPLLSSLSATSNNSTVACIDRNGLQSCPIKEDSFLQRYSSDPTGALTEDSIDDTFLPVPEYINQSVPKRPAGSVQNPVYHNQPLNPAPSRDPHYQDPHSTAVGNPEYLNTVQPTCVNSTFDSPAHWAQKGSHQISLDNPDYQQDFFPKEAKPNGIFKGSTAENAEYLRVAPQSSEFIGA

SMILES	inhibition at 10 µM [1]	inhibition at 10 µM [2]	inhibition at 10 µM [3]	inhibition at 10 µM [4]	inhibition at 10 µM [5]	inhibition at 10 µM [6]	inhibition at 10 µM [7]	inhibition at 10 µM [8]	inhibition at 10 µM [9]	inhibition at 10 µM [10]	inhibition at 10 µM [11]	inhibition at 10 µM [12]	inhibition at 10 µM [13]	inhibition at 10 µM [14]	inhibition at 10 µM [15]	inhibition at 10 µM [16]	inhibition at 10 µM [17]	inhibition at 10 µM [18]	inhibition at 10 µM [19]	inhibition at 10 µM [20]	also measured
CCOC(=O)C1=C(N)N(c2ccccc2)C2=C(C(=O)CC(C)(C)C2)C1c1ccccc1Cl (racemic) [6a, (±)-Ethyl 2-amino-4–(2-chlorophenyl)-7,7-dimethyl-5-oxo-1-phenyl-1,4,5,6,7,8-hexahydroquinoline-3-carboxylate]	52%	26%	32%	40%	35%	59%	45%	25%	< 10%	21%	11%	50%	19%	56%	< 10%	27%	21%	< 10%	54%	25%	inhibition at 10 µM [21]: < 10%; inhibition at 10 µM [22]: 45%; inhibition at 10 µM [23]: 71%; inhibition at 10 µM [24]: 12%; inhibition at 10 µM [25]: 44%; inhibition at 10 µM [26]: 16%; inhibition at 10 µM [27]: < 10%; inhibition at 10 µM [28]: 22%; IC50 [29]: 610 ± 5 nM; IC50 [30]: 490 ± 4 nM; IC50 [31]: 358 ± 160 nM
CCOC(=O)C1=C(N)N(c2ccc(Cl)cc2)C2=C(C(=O)CC(C)(C)C2)C1c1ccc(Cl)cc1Cl (racemic) [10d, (±)-Ethyl 2-amino-1–(4-chorophenyl)-4–(2,4-dichlorophenyl)-7,7-dimethyl-5-oxo-1-phenyl-1,4,5,6,7,8-hexahydroquinoline-3-carboxylate]	64%	71%	55%	49%	53%	66%	43%	48%	21%	58%	32%	30%	30%	45%	16%	47%	31%	23%	54%	47%	inhibition at 10 µM [21]: 30%; inhibition at 10 µM [22]: 65%; inhibition at 10 µM [23]: 79%; inhibition at 10 µM [24]: 23%; inhibition at 10 µM [25]: 70%; inhibition at 10 µM [26]: 42%; inhibition at 10 µM [27]: < 10%; inhibition at 10 µM [28]: 24%; IC50 [29]: 280 ± 1 nM; IC50 [30]: 51 ± 1 nM; IC50 [31]: 97 ± 5 nM
